Holding throughout (test): relative viability (nuclei count vs DMSO), 5 days (fraction); higher = more cells survive
Compound in the assay “Bemcentinib + OSI-027”: Nc1nc(Nc2ccc3c(c2)CC[C@@H](N2CCCC2)CC3)nn1-c1cc2c(nn1)-c1ccccc1CCC2 [Bemcentinib] + COc1cccc2cc(-c3nc([C@H]4CC[C@H](C(=O)O)CC4)n4ncnc(N)c34)[nH]c12 [OSI-027] (partner 0.5 µM)
The essentials:
(§1)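 Relative viability equals treated-well nuclei counts divided by vehicle-well nuclei counts. Counts came from 4× images of lung cancer cell lines grown in 1536-well plates for 5 days after pin-tool dosing on the day after seeding. Dosing used one drug alone or a fixed anchor-drug dose plus five library-drug doses (not always all listed) in √10 steps, and values are medians of duplicate plates.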

Compound in the assay “Axitinib + Linsitinib”: CNC(=O)c1ccccc1Sc1ccc2c(/C=C/c3ccccn3)n[nH]c2c1 [Axitinib] + C[C@]1(O)C[C@@H](c2nc(-c3ccc4ccc(-c5ccccc5)nc4c3)c3c(N)nccn32)C1 [Linsitinib] (partner 1 µM)
The essentials:
as §1

Compound in the assay “Bemcentinib + Pemetrexed”: Nc1nc(Nc2ccc3c(c2)CC[C@@H](N2CCCC2)CC3)nn1-c1cc2c(nn1)-c1ccccc1CCC2 [Bemcentinib] + Nc1nc2[nH]cc(CCc3ccc(C(=O)N[C@@H](CCC(=O)O)C(=O)O)cc3)c2c(=O)[nH]1 [Pemetrexed] (partner 0.2 µM)
An outline of the steps:
as §1

Compound in the assay “Bemcentinib + Luminespib”: Nc1nc(Nc2ccc3c(c2)CC[C@@H](N2CCCC2)CC3)nn1-c1cc2c(nn1)-c1ccccc1CCC2 [Bemcentinib] + CCNC(=O)c1noc(-c2cc(C(C)C)c(O)cc2O)c1-c1ccc(CN2CCOCC2)cc1 [Luminespib] (partner 0.01 µM)
The essentials:
as §1

Data on twelve cell lines can be found in the supplement of paper PMC10307832.

For the cell line HCC-366, the relative viability in the assay with Bemcentinib + OSI-027 (first compound 0.04 µM) was determined as 0.803; with Bemcentinib + OSI-027 (first compound 0.1265 µM), 1.17; with Bemcentinib + OSI-027 (first compound 0.4 µM), 0.921; with Bemcentinib + OSI-027 (first compound 1.265 µM), 0.875; with Bemcentinib + OSI-027 (first compound 4 µM), 0.898; in the assay with Axitinib + Linsitinib (first compound 0.005 µM), 0.673. Besides, the relative viability with Axitinib + Linsitinib (first compound 0.01581 µM) worked out at 0.615; with Axitinib + Linsitinib (first compound 0.05 µM), 0.776; with Axitinib + Linsitinib (first compound 0.1581 µM), 0.662; in the assay with Axitinib + Linsitinib (first compound 0.5 µM), 0.842; in the assay with Bemcentinib + Pemetrexed (first compound 0.04 µM) it was 0.175; with Bemcentinib + Pemetrexed (first compound 0.1265 µM) it was 0.185. In addition, the relative viability with Bemcentinib + Pemetrexed (first compound 0.4 µM) was found to be 0.179; with Bemcentinib + Pemetrexed (first compound 1.265 µM) it was 0.173; in the assay with Bemcentinib + Pemetrexed (first compound 4 µM) it was 0.157.

IA-LM: the relative viability with Axitinib + Linsitinib (first compound 0.005 µM) worked out at 0.546; in the assay with Axitinib + Linsitinib (first compound 0.01581 µM) it was 0.437; with Axitinib + Linsitinib (first compound 0.05 µM), 0.564; with Axitinib + Linsitinib (first compound 0.1581 µM) it was 0.665; with Axitinib + Linsitinib (first compound 0.5 µM), 0.542.

On to NCI-H522, for which the relative viability was 0.95 with Bemcentinib + Luminespib (first compound 0.04 µM); 1.15 with Bemcentinib + Luminespib (first compound 0.1265 µM); 1.16 with Bemcentinib + Luminespib (first compound 0.4 µM); 1.21 in the assay with Bemcentinib + Luminespib (first compound 1.265 µM); 1.06 with Bemcentinib + Luminespib (first compound 4 µM); 0.714 with Bemcentinib + OSI-027 (first compound 0.04 µM). The relative viability with Bemcentinib + OSI-027 (first compound 0.1265 µM) came out at 0.548; in the assay with Bemcentinib + OSI-027 (first compound 0.4 µM), 0.614; with Bemcentinib + OSI-027 (first compound 1.265 µM), 0.656; with Bemcentinib + OSI-027 (first compound 4 µM), 0.728; with Bemcentinib + Pemetrexed (first compound 0.04 µM) it was 1.03; with Bemcentinib + Pemetrexed (first compound 0.1265 µM), 0.908. Moreover, the relative viability with Bemcentinib + Pemetrexed (first compound 0.4 µM) was 0.897; with Bemcentinib + Pemetrexed (first compound 1.265 µM) it was 1.04; with Bemcentinib + Pemetrexed (first compound 4 µM) it was 1.18.

NCI-H727: the relative viability with Bemcentinib + Luminespib (first compound 0.04 µM) came out at 0.352; with Bemcentinib + Luminespib (first compound 0.1265 µM), 0.383; with Bemcentinib + Luminespib (first compound 0.4 µM) it was 0.268; with Bemcentinib + Luminespib (first compound 1.265 µM), 0.29; with Bemcentinib + Luminespib (first compound 4 µM) it was 0.303; with Bemcentinib + OSI-027 (first compound 0.04 µM) it was 0.552. For the same cell line, the relative viability turned out to be 0.631 with Bemcentinib + OSI-027 (first compound 0.1265 µM); 0.645 with Bemcentinib + OSI-027 (first compound 0.4 µM); 0.592 in the assay with Bemcentinib + OSI-027 (first compound 1.265 µM); 0.576 with Bemcentinib + OSI-027 (first compound 4 µM); 0.415 with Axitinib + Linsitinib (first compound 0.005 µM); 0.246 in the assay with Axitinib + Linsitinib (first compound 0.01581 µM). The results for the relative viability with Axitinib + Linsitinib (first compound 0.05 µM), with Axitinib + Linsitinib (first compound 0.1581 µM) and in the assay with Axitinib + Linsitinib (first compound 0.5 µM) were 0.311, 0.246 and 0.432, respectively.

NCI-H1299: the relative viability with Axitinib + Linsitinib (first compound 0.005 µM) was 0.962; with Axitinib + Linsitinib (first compound 0.01581 µM), 1.03; with Axitinib + Linsitinib (first compound 0.05 µM), 0.978; with Axitinib + Linsitinib (first compound 0.1581 µM), 1; with Axitinib + Linsitinib (first compound 0.5 µM), 1.06.

Turning to NCI-H1623, the relative viability came to 0.498 with Bemcentinib + Luminespib (first compound 0.04 µM); 0.547 in the assay with Bemcentinib + Luminespib (first compound 0.1265 µM); 0.588 with Bemcentinib + Luminespib (first compound 0.4 µM); 0.481 with Bemcentinib + Luminespib (first compound 1.265 µM); 0.467 with Bemcentinib + Luminespib (first compound 4 µM); 0.401 in the assay with Bemcentinib + OSI-027 (first compound 0.04 µM). Moreover, the relative viability in the assay with Bemcentinib + OSI-027 (first compound 0.1265 µM) was 0.418; with Bemcentinib + OSI-027 (first compound 0.4 µM), 0.424; with Bemcentinib + OSI-027 (first compound 1.265 µM), 0.45; with Bemcentinib + OSI-027 (first compound 4 µM) it was 0.502.

For NCI-H1648, the relative viability with Bemcentinib + OSI-027 (first compound 0.04 µM) came to 0.245; with Bemcentinib + OSI-027 (first compound 0.1265 µM), 0.271; in the assay with Bemcentinib + OSI-027 (first compound 0.4 µM) it was 0.275; with Bemcentinib + OSI-027 (first compound 1.265 µM), 0.245; with Bemcentinib + OSI-027 (first compound 4 µM), 0.283; with Bemcentinib + Pemetrexed (first compound 0.04 µM), 0.717. Also, the relative viability with Bemcentinib + Pemetrexed (first compound 0.1265 µM) was 0.761; in the assay with Bemcentinib + Pemetrexed (first compound 0.4 µM) it was 0.818; with Bemcentinib + Pemetrexed (first compound 1.265 µM), 0.697; in the assay with Bemcentinib + Pemetrexed (first compound 4 µM), 0.841.

Take NCI-H1650: the relative viability in the assay with Bemcentinib + Luminespib (first compound 0.04 µM) turned out to be 0.207; with Bemcentinib + Luminespib (first compound 0.1265 µM), 0.237; with Bemcentinib + Luminespib (first compound 0.4 µM) it was 0.199; with Bemcentinib + Luminespib (first compound 1.265 µM), 0.236; in the assay with Bemcentinib + Luminespib (first compound 4 µM), 0.186; in the assay with Bemcentinib + OSI-027 (first compound 0.04 µM) it was 0.59. In addition, the relative viability in the assay with Bemcentinib + OSI-027 (first compound 0.1265 µM) turned out to be 0.913; with Bemcentinib + OSI-027 (first compound 0.4 µM), 0.624; in the assay with Bemcentinib + OSI-027 (first compound 1.265 µM), 0.72; in the assay with Bemcentinib + OSI-027 (first compound 4 µM), 0.724; with Bemcentinib + Pemetrexed (first compound 0.04 µM), 0.327; with Bemcentinib + Pemetrexed (first compound 0.1265 µM), 0.337. In addition, the relative viability in the assay with Bemcentinib + Pemetrexed (first compound 0.4 µM) worked out at 0.414; in the assay with Bemcentinib + Pemetrexed (first compound 1.265 µM), 0.391; in the assay with Bemcentinib + Pemetrexed (first compound 4 µM), 0.364.

With NCI-H1703, the relative viability with Axitinib + Linsitinib (first compound 0.005 µM) was found to be 0.888; in the assay with Axitinib + Linsitinib (first compound 0.01581 µM), 0.461; with Axitinib + Linsitinib (first compound 0.05 µM), 0.12; with Axitinib + Linsitinib (first compound 0.1581 µM) it was 0.148; with Axitinib + Linsitinib (first compound 0.5 µM) it was 0.164.

As to NCI-H2170, the relative viability in the assay with Bemcentinib + Luminespib (first compound 0.04 µM) is 0.568; with Bemcentinib + Luminespib (first compound 0.1265 µM), 0.923; with Bemcentinib + Luminespib (first compound 0.4 µM), 0.649; in the assay with Bemcentinib + Luminespib (first compound 1.265 µM), 0.809; with Bemcentinib + Luminespib (first compound 4 µM) it was 0.869; in the assay with Bemcentinib + OSI-027 (first compound 0.04 µM), 0.739. Besides, the relative viability in the assay with Bemcentinib + OSI-027 (first compound 0.1265 µM) was determined as 0.743; with Bemcentinib + OSI-027 (first compound 0.4 µM), 0.76; with Bemcentinib + OSI-027 (first compound 1.265 µM) it was 0.729; in the assay with Bemcentinib + OSI-027 (first compound 4 µM) it was 0.807; in the assay with Bemcentinib + Pemetrexed (first compound 0.04 µM), 0.264; with Bemcentinib + Pemetrexed (first compound 0.1265 µM) it was 0.278. The relative viability was found to be 0.283 in the assay with Bemcentinib + Pemetrexed (first compound 0.4 µM), 0.244 with Bemcentinib + Pemetrexed (first compound 1.265 µM) and 0.264 with Bemcentinib + Pemetrexed (first compound 4 µM).

Regarding NCI-H2342, the relative viability came to 0.689 with Bemcentinib + Luminespib (first compound 0.04 µM); 0.762 with Bemcentinib + Luminespib (first compound 0.1265 µM); 0.679 in the assay with Bemcentinib + Luminespib (first compound 0.4 µM); 0.83 with Bemcentinib + Luminespib (first compound 1.265 µM); 0.794 in the assay with Bemcentinib + Luminespib (first compound 4 µM); 0.618 with Bemcentinib + OSI-027 (first compound 0.04 µM). Further, the relative viability turned out to be 0.655 with Bemcentinib + OSI-027 (first compound 0.1265 µM); 0.689 with Bemcentinib + OSI-027 (first compound 0.4 µM); 0.56 with Bemcentinib + OSI-027 (first compound 1.265 µM); 0.567 with Bemcentinib + OSI-027 (first compound 4 µM); 0.703 with Bemcentinib + Pemetrexed (first compound 0.04 µM); 0.805 with Bemcentinib + Pemetrexed (first compound 0.1265 µM). The relative viability with Bemcentinib + Pemetrexed (first compound 0.4 µM) came to 0.823; with Bemcentinib + Pemetrexed (first compound 1.265 µM) it was 0.728; with Bemcentinib + Pemetrexed (first compound 4 µM), 0.787.

Consider SW 900, for which the relative viability with Bemcentinib + Luminespib (first compound 0.04 µM) worked out at 0.169; with Bemcentinib + Luminespib (first compound 0.1265 µM) it was 0.203; with Bemcentinib + Luminespib (first compound 0.4 µM), 0.174; in the assay with Bemcentinib + Luminespib (first compound 1.265 µM), 0.156; with Bemcentinib + Luminespib (first compound 4 µM), 0.17; with Bemcentinib + OSI-027 (first compound 0.04 µM), 0.446. Also, the relative viability in the assay with Bemcentinib + OSI-027 (first compound 0.1265 µM) amounted to 0.544; with Bemcentinib + OSI-027 (first compound 0.4 µM), 0.71; with Bemcentinib + OSI-027 (first compound 1.265 µM) it was 0.473; with Bemcentinib + OSI-027 (first compound 4 µM) it was 0.419; with Bemcentinib + Pemetrexed (first compound 0.04 µM) it was 0.492; with Bemcentinib + Pemetrexed (first compound 0.1265 µM) it was 0.541. The relative viability is 0.485 with Bemcentinib + Pemetrexed (first compound 0.4 µM), 0.433 with Bemcentinib + Pemetrexed (first compound 1.265 µM) and 0.48 in the assay with Bemcentinib + Pemetrexed (first compound 4 µM).
